target: T1, human MC5R (Homo sapiens, UniProt P33032); assay: Human MC5R radioligand binding assay ([125I] NDP-MSH displacement, hMC5R membranes); details: hMC5R assay as in Example 102; compounds tested as trifluoroacetate or hydrochloride salts, or as free base
T1 construct: purchased Perkin Elmer RBXMC5M400UA
Outline: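 Bound ligand collected by filtration on PEI-soaked GF/A filters and counted. Data fitted to a single-site competition model with fixed Hill coefficient to give EC50.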

T1 sequence (P33032 whole entry): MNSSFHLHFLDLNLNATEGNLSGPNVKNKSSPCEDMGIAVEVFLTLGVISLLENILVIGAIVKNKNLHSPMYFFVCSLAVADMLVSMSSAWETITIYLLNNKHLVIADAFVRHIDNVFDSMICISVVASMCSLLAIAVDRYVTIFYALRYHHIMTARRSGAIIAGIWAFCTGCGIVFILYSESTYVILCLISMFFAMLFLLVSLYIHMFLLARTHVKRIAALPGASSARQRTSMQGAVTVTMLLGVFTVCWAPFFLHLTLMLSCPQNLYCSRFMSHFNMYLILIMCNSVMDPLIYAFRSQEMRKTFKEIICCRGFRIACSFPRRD

| IC50 | SMILES |
| --- | --- |
| < 10000 nM | CCC(CC)CN1CC[C@@H](CNC(=O)c2ccc(F)c(Cl)c2)N[C@@H](CCN)C1=O [Compound 353, N-(((3S,5S)-3-(2-aminoethyl)-1-(2-ethylbutyl)-2-oxo-1,4-diazepan-5-yl)methyl)-3-chloro-4-fluorobenzamide] |
| < 10000 nM | CCC(CC)CN1CC[C@@H](CNC(=O)c2ccc(C)c(Cl)c2)N[C@@H](CCN)C1=O [Compound 354, N-(((3S,5S)-3-(2-aminoethyl)-1-(2-ethylbutyl)-2-oxo-1,4-diazepan-5-yl)methyl)-3-chloro-4-methylbenzamide] |
| < 1000 nM | CCC(CC)CN1CC[C@@H](CNC(=O)/C=C/c2ccc(Cl)cc2)N[C@@H](CN2CCCCC2)C1=O [Compound 355, (E)-3-(4-chlorophenyl)-N-(((3S,5S)-1-(2-ethylbutyl)-2-oxo-3-(piperidin-1-ylmethyl)-1,4-diazepan-5-yl)methyl)acrylamide] |
| < 1000 nM | CC(C)NCC[C@@H]1N[C@H](CCNC(=O)c2ccc(Cl)c(Cl)c2)CCN(CC(c2ccccc2)c2ccccc2)C1=O [Compound 362, 3,4-dichloro-N-(2-((3S,5R)-1-(2,2-diphenylethyl)-3-(2-(isopropylamino)ethyl)-2-oxo-1,4-diazepan-5-yl)ethyl)benzamide] |
| < 10000 nM | CC(C)N(CC[C@@H]1N[C@H](CCNC(=O)c2ccc(Cl)c(Cl)c2)CCN(CC(c2ccccc2)c2ccccc2)C1=O)C(C)C [Compound 363, 3,4-dichloro-N-(2-((3S,5R)-3-(2-(diisopropylamino)ethyl)-1-(2,2-diphenylethyl)-2-oxo-1,4-diazepan-5-yl)ethyl)benzamide] |
| < 1000 nM | NC[C@@H]1N[C@H](CNC(=O)c2ccc(Cl)c(Cl)c2)CCN(Cc2cc(Cl)cc(Cl)c2)C1=O [Compound 364, N-(((3S,5S)-3-(aminomethyl)-1-(3,5-dichlorobenzyl)-2-oxo-1,4-diazepan-5-yl)methyl)-3,4-dichlorobenzamide] |
| < 1000 nM | NC[C@@H]1N[C@H](CNC(=O)c2ccc3ccccc3c2)CCN(Cc2cc(Cl)cc(Cl)c2)C1=O [Compound 365, N-(((3S,5S)-3-(aminomethyl)-1-(3,5-dichlorobenzyl)-2-oxo-1,4-diazepan-5-yl)methyl)-2-naphthamide] |
| < 1000 nM | O=C(NC[C@@H]1CCN(Cc2cc(Cl)cc(Cl)c2)C(=O)[C@H](CN2CCCCC2)N1)c1ccc(Cl)c(Cl)c1 [Compound 367, 3,4-dichloro-N-(((3S,5S)-1-(3,5-dichlorobenzyl)-2-oxo-3-(piperidin-1-ylmethyl)-1,4-diazepan-5-yl)methyl)benzamide] |
| < 100 nM | O=C(/C=C/c1ccc(Cl)cc1)NC[C@@H]1CCN(Cc2cc(Cl)cc(Cl)c2)C(=O)[C@H](CN2CCCCC2)N1 [Compound 368, (E)-3-(4-chlorophenyl)-N-(((3S,5S)-1-(3,5-dichlorobenzyl)-2-oxo-3-(piperidin-1-ylmethyl)-1,4-diazepan-5-yl)methyl)acrylamide] |
| < 1000 nM | CCC(CN1CC[C@@H](CNC(=O)c2ccc(Cl)c(Cl)c2)N[C@@H](CCN)C1=O)c1ccccc1 (stereo partly drawn) [Compound 369, N-(((3S,5S)-3-(2-aminoethyl)-2-oxo-1-(2-phenylbutyl)-1,4-diazepan-5-yl)methyl)-3,4-dichlorobenzamide] |
| < 1000 nM | O=C(NC[C@@H]1CCN(Cc2cc(Cl)cc(Cl)c2)C(=O)[C@H](CN2CCCC2)N1)c1ccc(Cl)c(Cl)c1 [Compound 371, 3,4-dichloro-N-(((3S,5S)-1-(3,5-dichlorobenzyl)-2-oxo-3-(pyrrolidin-1-ylmethyl)-1,4-diazepan-5-yl)methyl)benzamide] |
| < 1000 nM | O=C(NC[C@@H]1CCN(Cc2cc(Cl)cc(Cl)c2)C(=O)[C@H](CN2CCCC2)N1)c1ccc2ccccc2c1 [Compound 372, N-(((3S,5S)-1-(3,5-dichlorobenzyl)-2-oxo-3-(pyrrolidin-1-ylmethyl)-1,4-diazepan-5-yl)methyl)-2-naphthamide] |

Further lines, the molecule ahead of its results:

| SMILES | IC50 |
| --- | --- |
| NC(=O)CC[C@@H]1N[C@H](CNC(=O)/C=C/c2ccc(Cl)cc2)CCN(CC(c2ccccc2)c2ccccc2)C1=O [Compound 298, (E)-N-(((3S,5S)-3-(3-amino-3-oxopropyl)-1-(2,2-diphenylethyl)-2-oxo-1,4-diazepan-5-yl)methyl)-3-(4-chlorophenyl)acrylamide] | < 1000 nM |
| O=C(/C=C/c1ccc(Cl)cc1)NC[C@@H]1CCN(CC(c2ccccc2)c2ccccc2)C(=O)[C@H](CCNC(=O)C2CCCCC2)N1 [Compound 306, N-(2-((2S,7S)-7-(((E)-3-(4-chlorophenyl)acrylamido)methyl)-4-(2,2-diphenylethyl)-3-oxo-1,4-diazepan-2-yl)ethyl)cyclohexanecarboxamide] | < 1000 nM |
| O=C(/C=C/c1ccc(Cl)cc1)NC[C@@H]1CCN(CC(c2ccccc2)c2ccccc2)C(=O)[C@H](CCNC(=O)CC2CCCCC2)N1 [Compound 307, (E)-3-(4-chlorophenyl)-N-(((3S,5S)-3-(2-(2-cyclohexylacetamido)ethyl)-1-(2,2-diphenylethyl)-2-oxo-1,4-diazepan-5-yl)methyl)acrylamide] | < 1000 nM |
| NCC[C@@H]1N[C@H](CCNC(=O)c2ccccc2)CCN(CC(c2ccccc2)c2ccccc2)C1=O [Compound 308, N-(2-((3S,5R)-1-(2,2-diphenylethyl)-2-oxo-3-(2-aminoethyl)-1,4-diazepan-5-yl)ethyl)benzamide] | < 10000 nM |
| NCC[C@@H]1N[C@H](CCNC(=O)c2ccc(Cl)c(Cl)c2)CCN(CC(c2ccccc2)c2ccccc2)C1=O [Compound 309, 3,4-dichloro-N-(2-((3S,5R)-1-(2,2-diphenylethyl)-2-oxo-3-(2-aminoethyl)-1,4-diazepan-5-yl)ethyl)benzamide] | < 1000 nM |
| O=C(NCC[C@@H]1CCN(CC(c2ccccc2)c2ccccc2)C(=O)[C@H](CCN2CCCCC2)N1)c1ccccc1 [Compound 311, N-(2-((3S,5R)-1-(2,2-diphenylethyl)-2-oxo-3-(2-(piperidin-1-yl)ethyl)-1,4-diazepan-5-yl)ethyl)benzamide] | < 10000 nM |
| O=C(NCC[C@@H]1CCN(CC(c2ccccc2)c2ccccc2)C(=O)[C@H](CCN2CCCCC2)N1)c1ccc(Cl)c(Cl)c1 [Compound 312, 3,4-dichloro-N-(2-((3S,5R)-1-(2,2-diphenylethyl)-2-oxo-3-(2-(piperidin-1-yl)ethyl)-1,4-diazepan-5-yl)ethyl)benzamide] | < 1000 nM |
| O=C(/C=C/c1ccc(Cl)cc1)NC[C@@H]1CCN(CC(c2ccccc2)c2ccccc2)C(=O)[C@H](CCC(=O)N2CCCCC2)N1 [Compound 318, (E)-3-(4-chlorophenyl)-N-(((3S,5S)-1-(2,2-diphenylethyl)-2-oxo-3-(3-oxo-3-(piperidin-1-yl)propyl)-1,4-diazepan-5-yl)methyl)acrylamide] | < 100 nM |
| O=C(/C=C/c1ccc(Cl)cc1)NC[C@@H]1CCN(CC(c2ccccc2)c2ccccc2)C(=O)[C@H](CCc2ccccc2)N1 [Compound 320, (E)-3-(4-chlorophenyl)-N-(((3S,5S)-1-(2,2-diphenylethyl)-2-oxo-3-phenethyl-1,4-diazepan-5-yl)methyl)acrylamide] | < 1000 nM |
| O=C(/C=C/c1ccc(Cl)cc1)NC[C@@H]1CCN(CC(c2ccccc2)c2ccccc2)C(=O)[C@H](CCC2CCCCC2)N1 [Compound 322, (E)-3-(4-chlorophenyl)-N-(((3S,5S)-3-(2-cyclohexylethyl)-1-(2,2-diphenylethyl)-2-oxo-1,4-diazepan-5-yl)methyl)acrylamide] | < 1000 nM |
| O=C(/C=C/c1ccc(Cl)cc1)NC[C@@H]1CCN(CC(c2ccccc2)c2ccccc2)C(=O)[C@H](Cc2ccccc2)N1 [Compound 324, (E)-N-(((3S,5S)-3-benzyl-1-(2,2-diphenylethyl)-2-oxo-1,4-diazepan-5-yl)methyl)-3-(4-chlorophenyl)acrylamide] | < 1000 nM |
| NCC[C@@H]1N[C@H](CNC(=O)c2ccc(Cl)c(Cl)c2)CCN(Cc2cc(Cl)cc(Cl)c2)C1=O [Compound 325, N-(((3S,5S)-3-(2-aminoethyl)-1-(3,5-dichlorobenzyl)-2-oxo-1,4-diazepan-5-yl)methyl)-3,4-dichlorobenzamide] | < 1000 nM |
| NCC[C@@H]1N[C@H](CNC(=O)/C=C/c2ccc(Cl)cc2)CCN(Cc2cc(Cl)cc(Cl)c2)C1=O [Compound 326, (E)-N-(((3S,5S)-3-(2-aminoethyl)-1-(3,5-dichlorobenzyl)-2-oxo-1,4-diazepan-5-yl)methyl)-3-(4-chlorophenyl)acrylamide] | < 100 nM |
| O=C(NC[C@@H]1CCN(Cc2cc(Cl)cc(Cl)c2)C(=O)[C@H](CCN2CCCCC2)N1)c1ccc(Cl)c(Cl)c1 [Compound 343, 3,4-dichloro-N-(((3S,5S)-1-(3,5-dichlorobenzyl)-2-oxo-3-(2-(piperidin-1-yl)ethyl)-1,4-diazepan-5-yl)methyl)benzamide] | < 100 nM |
| O=C(/C=C/c1ccc(Cl)cc1)NC[C@@H]1CCN(Cc2cc(Cl)cc(Cl)c2)C(=O)[C@H](CCN2CCCCC2)N1 [Compound 345, (E)-3-(4-chlorophenyl)-N-(((3S,5S)-1-(3,5-dichlorobenzyl)-2-oxo-3-(2-(piperidin-1-yl)ethyl)-1,4-diazepan-5-yl)methyl)acrylamide] | < 10 nM |
| CCC(CC)CN1CC[C@@H](CNC(=O)c2ccc(Cl)c(Cl)c2)N[C@@H](CCN)C1=O [Compound 346, N-(((3S,5S)-3-(2-aminoethyl)-1-(2-ethylbutyl)-2-oxo-1,4-diazepan-5-yl)methyl)-3,4-dichlorobenzamide] | < 1000 nM |
| CCC(CC)CN1CC[C@@H](CNC(=O)c2ccc(Cl)c(Cl)c2)N[C@@H](CCN2CCCCC2)C1=O [Compound 349, 3,4-dichloro-N-(((3S,5S)-1-(2-ethylbutyl)-2-oxo-3-(2-(piperidin-1-yl)ethyl)-1,4-diazepan-5-yl)methyl)benzamide] | < 100 nM |
| CCC(CC)CN1CC[C@@H](CNC(=O)c2ccc(Cl)c(F)c2)N[C@@H](CCN)C1=O [Compound 351, N-(((3S,5S)-3-(2-aminoethyl)-1-(2-ethylbutyl)-2-oxo-1,4-diazepan-5-yl)methyl)-4-chloro-3-fluorobenzamide] | < 10000 nM |
| CCC(CC)CN1CC[C@@H](CNC(=O)c2ccc(Cl)c(C)c2)N[C@@H](CCN)C1=O [Compound 352, N-(((3S,5S)-3-(2-aminoethyl)-1-(2-ethylbutyl)-2-oxo-1,4-diazepan-5-yl)methyl)-4-chloro-3-methylbenzamide] | < 10000 nM |
